Experimental data reported in US9949489B2, “Methods for control of hemipteran insect stylet sheath structure formation” (The United States of America, as Represented by the …, priority 2015, dated 2018).

Columns and labels:
D. citri [1] = test: Liquid ACP diet sandwich feeding assay (MFC): inhibition of de novo stylet sheath formation; assay type: in vivo, Diaphorina citri; settings: about 24 h; cellulase approx 1 unit/μl; BAPN 100 mM; EDTA approx 2 mM; proteases per Table 5
Description: The next step was to determine if addition of cellulase to the diet of D. citri would interfere with stylet sheath formation. A D. citri diet is prepared as described by Hall, David et al., “Research toward an artificial diet for adult Asian citrus psyllid,” Annals of the Entomological Society of America 103.4:611-617 (2010). Approximately 25 D. citri were collected into polystyrene Cellstar 35 mm×10 mm dishes (Griener Bio-One, Monroe, N.C.) that were then sealed using a single layer of Parafilm® M (Pechiney Plastic Packaging Company, Chicago, Ill.). Approximately 99 μl of liquid ACP diet (e.g., diet lacking the solidifying agar component, see Hall, et. al., 2010, supra) was mixed with approximately 1 μl of cellulase (Sigma Aldrich, St. Louis, Mo.) and mixed. […] layer Parafilm® M surface, which was then covered with another layer of Parafilm® M to form a sandwich (e.g., Parafilm® M—liquid ACP diet with cellulase—Parafilm® M) to allow ACP to feed into the liquid ACP diet containing cellulase. This MFC was then incubated at about 25° C., at about 75% relative humidity, with a light:dark cycle of approximately 14:10 hours for a period of about 24 hours. After about 24 hours, the stylet sheaths were observed using an inverted microscope. FIGS. 3G through 3I are images of three separate locations where D. citri made attempts to feed into the liquid ACP diet containing approximately 1 unit/μl cellulase.
Because many biomolecule polymerizing enzymes require divalent cations as cofactors, the effect of ethylenediaminetetraacetic acid (EDTA), a chelator of divalent cations, on ACP SS formation was tested by adding EDTA to the previously described liquid ACP diet (see Hall et al., 2010, supra). The EDTA was added to the liquid ACP diet at a concentration of approximately 2 mM EDTA in diH2O. Approximately 200 D. citri were placed in plastic Petri dishes. The dishes were covered with a single layer of Parafilm® M to form MFC. […] The MFC plates were incubated at a temperature of about 25° C., a relative humidity of about 75%, and a light/dark cycle of about 14:10 hours duration. Following the 24-hour incubation, the fluid (either liquid ACP diet containing EDTA or just the liquid ACP diet) between the two sheets of plastic was harvested by using a sterile 5 ml syringe and 20-gauge needle which was pushed into the center of the Parafilm® M-fluid-Parafilm® M sandwich, and the fluid was then removed by syringe plunger suction. The harvested fluids were put into sterile 50 ml conical vials, placed at about −80° C. until frozen. Each vial of harvested fluid was then lypholyzed overnight. The lyophilized product was then solubilized in […], placed at about −80° C. until frozen, then each new vial was lyopholyzed overnight. The lyophilized product was then solubilized in approximately 15 μL of approximately 1× Laemmili buffer (Bio-Rad, Hercules, Calif.) containing approximately 5% 2-mercaptoethanol. The sample was loaded onto a sodium dodecyl sulfate polyacrylamide gel (SDS-PAGE) and underwent electrophoresis. The SDS PAGE gel was then stained with coomassie. Uncommon bands between the liquid ACP diet containing EDTA and liquid ACP diet without EDTA (negative control) lanes were cut out and analyzed by Orbitrap (Thermo Scientific, Waltham, Mass.) protein analysis, according to manufacturer's protocol.
After about 24-hour incubation, D. citri feeding sites were observed. […] See also Table 2 and Table 3, infra.

D. citri [2] = test: as above; assay type: in vivo, Diaphorina citri; parameters: key: −: No effect apparent; +/−: inconclusive; +: apparent slight effect; ++: increased apparent effect; +++: high effect; ++++: very high effect; +++++: complete degradation of sheaths or inhibition of sheath synthesis; settings: enzyme in liquid ACP diet, about 24 h, 25° C., enzyme amounts and pH per Table 5 (cellulase approx 1 unit/μl)
Description: The next step was to determine if addition of cellulase to the diet of D. citri would interfere with stylet sheath formation. A D. citri diet is prepared as described by Hall, David et al., “Research toward an artificial diet for adult Asian citrus psyllid,” Annals of the Entomological Society of America 103.4:611-617 (2010). Approximately 25 D. citri were collected into polystyrene Cellstar 35 mm×10 mm dishes (Griener Bio-One, Monroe, N.C.) that were then sealed using a single layer of Parafilm® M (Pechiney Plastic Packaging Company, Chicago, Ill.). Approximately 99 μl of liquid ACP diet (e.g., diet lacking the solidifying agar component, see Hall, et. al., 2010, supra) was mixed with approximately 1 μl of cellulase (Sigma Aldrich, St. Louis, Mo.) and mixed. […]
Because many biomolecule polymerizing enzymes require divalent cations as cofactors, the effect of ethylenediaminetetraacetic acid (EDTA), a chelator of divalent cations, on ACP SS formation was tested by adding EDTA to the previously described liquid ACP diet (see Hall et al., 2010, supra). […] Uncommon bands between the liquid ACP diet containing EDTA and liquid ACP diet without EDTA (negative control) lanes were cut out and analyzed by Orbitrap (Thermo Scientific, Waltham, Mass.) protein analysis, according to manufacturer's protocol. […]

[3] = test system: D. citri stylet sheaths (ACP SSs); test: Degradation of preformed, solidified stylet sheaths by enzymes (MFC membrane or slide incubation); parameters: species or system Diaphorina citri; key to Sheath Degradation: −: No effect apparent; +/−: inconclusive; +: apparent slight effect; ++: increased apparent effect; +++: high effect; ++++: very high effect; +++++: complete degradation of sheaths or inhibition of sheath synthesis; settings: D. citri preformed sheaths; enzyme concentration, pH and temperature per Table 4 (cellulase 1:25, pH 6.0, 60° C.)
Description: In order to test cellulase's effect on preformed ACP SSs, formed, solidified stylet sheaths were harvested directly from the surface of an MFC membrane (in these experiments either plastic wrap or parafilm was used) as described herein and in Morgan et al. 2013, supra. Approximately 100 psyllids were placed into an MFC for about 24 hours. The MFCs consisted of D. citri caged individually and/or in groups within 100 mm×15 mm plastic Petri dishes. A single kitchen plastic wrap layer was stretched across the top of each Petri dish to seal the Petri dish from insect escape and to provide a stylet penetrable surface for insect probing.
Several MFCs (the Petri dishes covered with kitchen plastic wrap or parafilm and containing D. citri) were placed into clear Pyrex® baking dishes with the membrane (kitchen plastic wrap or parafilm) side up, and the Pyrex® baking dish is covered with a single layer of clear kitchen plastic wrap to prevent external contaminant interactions with the membrane surface during incubation. MFCs were incubated at a temperature of about 25° C., relative humidity of about 75%, and a light:dark cycle of about […]. […]

Sheath Degradation [3]: +++++
Substance: Chymopapain from papaya latex: Cysteine peptidase; Sigma #C8526
Effect on D. citri stylet sheath formation in liquid ACP diet (D. citri [1]): capable of inhibiting the formation of ACP SSs | Inhibition of Sheath Formation (D. citri [2]): +++++
